Experiment [1] addresses T1, kappa opioid receptor (Homo sapiens, UniProt P41145).
T1 construct: grown in complete Ham's F-12 medium
Briefly: Invitro KOR agonistic activity, cAMP based functional assay. The class given is cell-based.

Experiment [2] has as its target T2, kappa opioid receptor (Mus musculus, UniProt P33534).
T2 construct: from tissue; host or cells: mouse vas deferens (male Swiss Albino mice)
Briefly: Ex-vivo KOR agonistic activity, electrically stimulated mouse vas deferens (MVD) model. As to the method: a) Ex-Vivo KOR Agonistic Activity Testing, Using Electrically Stimulated Mouse Vas Deferens (MVD) Model:
Ex-vivo, the kappa opioid receptor agonistic activity of test compounds were tested on the electrically stimulated mouse vas deferens (MVD) preparations (Henderson et al., Br. J. Pharmacol., 46, 764-766, 1972; Portoghese et al., Life Sci. 36, 801-805, 1985) and IC50 were determined. In general, vas deferentia were taken from male Swiss Albino mice (30-40 g) and suspended in 8 ml organ baths, at 31° C., containing modified Krebs-Henseleit solution, without magnesium sulphate. Each vas deferens was equilibrated for 45 min at 2.6 mN tension and then stimulated at supramaximal voltage with five 1 ms pulses, at a frequency of 0.1 Hz. Concentration-response curves were determined by cumulative dosing. Inhibitory Concentration, 50% (IC50) values were determined by Sigmoidal dose-response (variable slope) equation, using Prizm v 6.01. The kappa opioid receptor specificity was determined by rightward shift in concentration-response curves in presence of 1 nM norbinaltorphimine (norBNI), a selective kappa opioid receptor antagonist.

This passage reports EC50 and IC50 results from patent publication US20170007610A1, “NOVEL HETEROBICYCLIC COMPOUNDS AS KAPPA OPIOID AGONISTS” (priority 2014, published 2017).

pEC50, pIC50: −log10 of the molar value.

T2 sequence (P33534 whole entry): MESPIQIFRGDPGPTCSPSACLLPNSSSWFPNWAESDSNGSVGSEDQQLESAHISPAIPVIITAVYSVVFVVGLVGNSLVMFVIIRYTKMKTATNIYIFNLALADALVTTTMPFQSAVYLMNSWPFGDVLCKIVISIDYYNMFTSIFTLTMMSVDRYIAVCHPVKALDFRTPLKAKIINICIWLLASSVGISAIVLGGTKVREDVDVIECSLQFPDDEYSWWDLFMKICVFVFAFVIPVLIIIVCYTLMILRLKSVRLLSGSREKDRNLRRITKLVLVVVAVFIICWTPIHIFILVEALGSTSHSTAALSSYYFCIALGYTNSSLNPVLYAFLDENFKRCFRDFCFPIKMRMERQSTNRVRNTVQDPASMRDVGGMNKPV
T1 sequence (P41145 whole entry): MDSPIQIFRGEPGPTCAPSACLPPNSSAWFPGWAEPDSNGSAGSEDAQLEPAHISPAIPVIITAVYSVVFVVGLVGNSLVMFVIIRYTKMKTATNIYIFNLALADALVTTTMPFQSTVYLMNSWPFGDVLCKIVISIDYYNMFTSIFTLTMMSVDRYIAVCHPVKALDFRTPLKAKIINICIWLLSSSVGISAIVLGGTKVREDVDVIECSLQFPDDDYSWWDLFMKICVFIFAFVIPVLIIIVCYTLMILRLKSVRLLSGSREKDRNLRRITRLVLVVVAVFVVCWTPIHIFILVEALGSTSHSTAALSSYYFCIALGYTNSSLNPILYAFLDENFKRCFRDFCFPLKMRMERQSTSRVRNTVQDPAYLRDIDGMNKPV

By pEC50 is commonly meant the negative decadic logarithm of the EC50, by convention in mol/L. In general, pIC50 refers to the IC50 on a negative log10 scale, so that one unit is a factor of ten. A higher pIC50 goes with a low IC50. Take `CC(=O)N1CCCc2c(OCC(=O)N(C)[C@H](CN3CC[C@H](O)C3)c3ccccc3)ccc(NS(C)(=O)=O)c21` [Compound 31, 2-((l-acetyl-8-(methylsulfonamido)-1,2,3,4-tetrahydroquinolin-5-yl)oxy)-N-((S)-2-((S)-3-hydroxypyrrolidin-1-yl)-1-phenylethyl)-N-methylacetamide]: at kappa opioid receptor [1], the pEC50 was 9.29. At kappa opioid receptor [2], this molecule had a negative logarithm of the IC50 (pIC50) of 6.93.

Turning to `CN(C(=O)COc1ccc(NC(=O)CN)c2ncccc12)[C@H](CN1CC[C@H](O)C1)c1ccccc1` [Compound 33, 2-((8-(2-aminoacetamido)quinolin-5-yl)oxy)-N-((S)-2-((S)-3-hydroxypyrrolidin-1-yl)-1-phenylethyl)-N-methylacetamide], at kappa opioid receptor [1], the pEC50 is 11.22. The molecule further gave a negative logarithm of the IC50 (pIC50) on kappa opioid receptor [2] of 8.08.

As to `CN(C(=O)COc1ccc(NC(=O)CO)c2ncccc12)[C@H](CN1CC[C@H](O)C1)c1ccccc1` [Compound 34, 2-((8-(2-hydroxyacetamido)quinolin-5-yl)oxy)-N-((S)-2-((S)-3-hydroxypyrrolidin-1-yl)-1-phenylethyl)-N-methylacetamide], the pEC50 at kappa opioid receptor [1] is 9.31. In addition, the negative-log IC50 (pIC50) at kappa opioid receptor [2] was 6.59.

With `COCC(=O)Nc1ccc(OCC(=O)N(C)[C@H](CN2CC[C@H](O)C2)c2ccccc2)c2cccnc12` [Compound 35, N-((S)-2-((S)-3-hydroxypyrrolidin-1-yl)-1-phenylethyl)-2-((8-(2-methoxyacetamido)quinolin-5-yl)oxy)-N-methylacetamide], at kappa opioid receptor [1], the pEC50 was 10.22. Moreover, the pIC50 on kappa opioid receptor [2] was 7.32.

Regarding `CN(C(=O)COc1ccc(NS(=O)(=O)N2CCCC2)c2ncccc12)[C@H](CN1CC[C@H](O)C1)c1ccccc1` [Compound 38], the negative logarithm of the EC50 (pEC50) on kappa opioid receptor [1] was 9.02. This molecule also had a pIC50 at kappa opioid receptor [2] of 8.13.

For the molecule `CN(C(=O)COc1ccc(NC(=N)N)c2ncccc12)[C@H](CN1CC[C@H](O)C1)c1ccccc1` [Compound 40, 2-((8-guanidinoquinolin-5-yl)oxy)-N-((S)-2-((S)-3-hydroxypyrrolidin-1-yl)-1-phenylethyl)-N-methylacetamide], the pEC50 at kappa opioid receptor [1] is 11.15. The molecule further showed a pIC50 on kappa opioid receptor [2] of 8.96.

At kappa opioid receptor [1], `CN(C(=O)COc1ccc(NCCO)c2ncccc12)[C@H](CN1CC[C@H](O)C1)c1ccccc1` [Compound 41] gave a pEC50 of 8.88. In addition, the pIC50 at kappa opioid receptor [2] is 6.60.

As to `CN(C(=O)COc1ccc(NS(C)(=O)=O)c2ncccc12)[C@H](CN1CC[C@H](O)C1)c1cccc([N+](=O)[O-])c1` [Compound 42, N-((S)-2-((S)-3-hydroxypyrrolidin-1-yl)-1-(3-nitrophenyl)ethyl)-N-methyl-2-((8-(methylsulfonamido)quinolin-5-yl)oxy) acetamide], the pEC50 at kappa opioid receptor [1] was 10.36. The molecule further gave a pIC50 on kappa opioid receptor [2] of 7.30.

At kappa opioid receptor [1], `CC(=O)Nc1cccc([C@@H](CN2CC[C@H](O)C2)N(C)C(=O)COc2ccc(NS(C)(=O)=O)c3ncccc23)c1` [Compound 45, N-((S)-1-(3-acetamidophenyl)-2-((S)-3-hydroxypyrrolidin-1-yl)ethyl)-N-methyl-2-((8-(methylsulfonamido)quinolin-5-yl)oxy) acetamide] showed a pEC50 of 10.18. This molecule gave a pIC50 on kappa opioid receptor [2] of 7.85.

`CN(C(=O)COc1cccc2ncccc12)[C@H](CN1CC[C@H](O)C1)c1cccc(NS(C)(=O)=O)c1` [Compound 46] showed a pEC50 at kappa opioid receptor [1] of 10.38. Besides, the pIC50 on kappa opioid receptor [2] was 8.02.

In turn, `CN(C)c1cccc([C@@H](CN2CC[C@H](O)C2)N(C)C(=O)COc2ccc(NS(C)(=O)=O)c3ncccc23)c1` [Compound 47, N-((S)-1-(3-dimethylaminophenyl)-2-((S)-3-hydroxypyrrolidin-1-yl)ethyl)-N-methyl-2-((8-(methylsulfonamido)quinolin-5-yl)oxy) acetamide] showed a pEC50 on kappa opioid receptor [1] of 9.16. This molecule also gave a pIC50 at kappa opioid receptor [2] of 7.06.
